Data set [1] has as its system nitric oxide synthase in rat aortic smooth muscle cells. As to the kind of experiment: Induction and assay of nitrite synthesis in smooth muscle cells. In kind it is cell-based. The method, then: Rat aortic smooth muscle cells were incubated with RPMI-1640 medium containing 10% bovine calf serum, 25 mM HEPES buffer (pH 7.4), 2 mM glutamine, […], and IL-1, IFN-γ, and various inhibitors at the concentrations indicated in the figure legends. At the desired times, nitrite concentration in the culture medium was measured using the standard Griess assay adapted to a 96-well microtiter plate reader.^36 The Griess assay is also described in Gross et al.^37 (1991). Thus, 100 µL of Griess reagent (0.5% sulfanilic acid, 0.05% naphthalenediamine, and 2.5% phosphoric acid) was added to an equal volume of culture medium, and the OD550 was measured and related to nitrite concentration by reference to a standard curve. […]
Rat aortic smooth muscle cells were incubated with RPMI-1640 medium containing 10% bovine calf serum, 25 mM HEPES buffer (pH 7.4), 2mM glutamine, 80 U/mL penicillin, 80 µg/mL streptomycin, 2 µg/mL fungizone, and IL-1, IFN-γ, and various inhibitors at the concentrations indicated in the figure legends. At the desired times, nitrite concentration in the culture medium was measured using the standard Griess assay (Green, L., et al. Anal. Biochem. 126:131-138, 1982) adapted to a 96-well microtiter plate reader (Gross, S.S., et al. Biochem. Biophys. Res. Commun. 178:823-829, 1991). […]

Data set [2] in a line: Cell respiration assay (MTT). The note with it: rat, aortic smooth muscle cells; read-out: MTT reduction [mean ± SD], of that measured in control cells treated with IL-1 alone. In kind it is cell-based.
Excerpt: The extent of reduction of MTT to formazan within cells, quantitated by measurement of the optical density at 550 nm (OD550), was taken as an indicator of cellular respiration.
The test system of another data set is ET shock (lethal dose). The data set is described as follows: Reversal of ET shock (lethal dose) by multiple doses of NAA. In kind it is in vivo. The method, then: The reversal of ET shock (lethal dose) by Nω-aminoarginine (NAA) for 4 hrs. […] Figure 8 depicts systemic arterial pressure (SAP) versus time (min). ET (2 mg/kg), a lethal dose, was infused over 60 min. and NAA administered at 97, 165, and 374 min. to maintain blood pressure. The animal was survived for 24 hours and then autopsied.

The test system of data set [3] is Actinomycin D-Treated L929 Cells. As to the kind of experiment: Cytolytic activity of rh-TNF against L929 cells. In kind it is cell-based, murine. The note with it: murine L929 cells. The method, then:
TNF bioactivity was measured by the cytotoxicity towards murine L929 cells, in vitro. […]

The test system of data set [4] is hypotension associated with the administration of TNF in the dog. As to the kind of experiment: TNF-induced hypotension in the dog. The note with it: dog; Figure 7. The data set is classed as in vivo, dogs. The method, then:
Recombinant human TNF, specific activity 2 x 10^7 units/mg, was from the Dainippon Chemical Corporation, Tokyo, Japan. TNF was administered at a dose of 10 µg//kg in a volume of 10 ml of phosphate buffered saline containing 17 mg/ml of dog albumin. […] Arginine was obtained from Sigma Chemical Company, St. Louis, Mo.
Four conditioned mongrel dogs, 2 males and 2 females, weighing 28 to 30 kg, were studied. Care of the animals were in accordance with the recommendations of the American Association for Accreditation of Laboratory Animals [DHEW(DHHS) publication no. (NIH) 78-23, revised, 1978]. On the day of the experiment, the dogs were fasted overnight. They were anesthetized with phenobarbital (25 mg/kg). The animals were then intubated orally with a #10 fr. endotracheal tube and ventilated with a Harvard pump ventilator at a rate of 14 breaths per minute and a tidal volume of 15 ml/kg. An arterial line was percutaneously placed in the femoral artery on the day of the experiment.
Mean (electronic) and phasic systemic arterial pressures (SAP) were continuously recorded on a Hewlett-Packard recording system (model 7758B) using strain gauge manometers (Hewlett-Packard model 1290A) which were connected to the arterial line. Heart rate (HR) was determined from an EKG tracing and continuously recorded on the Hewlett-Packard recording system. Oxyhemoglobin saturation (SaO2) was obtained using a pulse oximeter (BIOX 111, Boulder, CO). Continuous time-series records of SAP, HR, and SaO2 were obtained using a Lab Master analog-to-digital convertor (16 channel, 12 bit, 30 kHz; Scientific Solutions, Inc.) sampling at 55 Hz and storing the 6 sec averages on a magnetic disk.

Data set [5] has as its system IL-1-Induced Hypotension in Dogs. The data set is described as follows: IL-1-induced hypotension in dogs. Particulars: for MAP increase after NAA: NAA 20 mg/kg iv single bolus. The data set is classed as in vivo. The method, then: • FIGURE 1 - Reversal of hypotension associated with the administration of IL-1 to dogs. The tracing shown is a representative experiment that was repeated four times. Each dog was anesthetized and […] as described herein, and baseline cardiovascular data were monitored for 30 minutes. IL-1 was dissolved in phosphate-buffered saline (pH 7.4) containing 1 mg/ml of dog albumin, and the resulting solution was infused intravenously for three minutes to deliver a dose of 50 µg/kg. MAP was continuously monitored; when a stable nadir was reached and maintained for more than 10 minutes or when MAP dropped below 50 mm Hg, NAA (20 mg/kg in 10 ml phosphate-buffered saline) was administered by intravenous infusion for 30 seconds. Sixty minutes after MAP was restored to baseline or higher values, L-arginine (400 mg/kg in 20 ml phosphate-buffered saline) was administered by slow intravenous infusion for 5 minutes. Anesthetized dogs given IL-1 (50 µg/kg) developed a progressive, moderately severe hypotension, with MAP decreasing from a baseline of 111 +/- 7 mm Hg to 80 +/- 2 mm Hg within about 3 hours. Hypotension was rapidly reversed by the intravenous administration of a single bolus dose of NAA (20 mg/kg, 88 umol/kg), with MAP increasing by from 46 +/- 9 mm Hg (58%_ to 125 +/- 8 mm Hg. • FIGURES 2A, 2B, 2C - Inhibition of IL-1-activated NO· production by N^ω-substituted arginine analogues. Figure 2A: Comparison of nitrite synthesis inhibition in smooth muscle cells by the L-isomers of NAA, NMA, and NNA and by the D-isomer of NMA. Figure 2B: Concentration dependence of nitrite synthesis inhibition in smooth muscle cells by NAA as a function of different L-arginine concentration in the culture medium. Confluent monolayers of smooth muscle cells in 96-well microtiter plates were treated with a combination of 100 ng/ml IL-1 and 50 ng/ml IFN-γ for 24 hours. Cells were then washed with Hanks' balanced salt solution, and fresh medium containing the indicated concentration of L-arginine was added. Points indicate means ± SD of nitrite production, expressed as percent of control, during a 16-hour exposure to arginine analogues (n = 3-4). Figure 2C: Effect of NAA on smooth muscle cell NO· synthase. Cytosol from cytokine-induced smooth muscle cells (∼2 µg protein) was incubated with 1 mM L-arginine, 0.5 mM NADPH, 1 mM dithiothreitol, 10 µM flavin-adenine dinucleotide, 10 µM tetrahydrobiopterin, and 0.1 U/ml dihydropteridine reductase in a total volume of 100 µL. The time course of Fe^2+-myoglobin oxidation was measured in the absence (control) or presence of 300 µM NAA (+NAA). […] FIGURE A: Time course of nitrite synthesis elicited by 40 ng/mL IL-1 alone (open circles) and by IL-1 in the presence of 50 ng/ml IFN-γ (open triangles). […] Inclusion of IL-1 receptor antagonist (40 µg/mL; filled symbols) in the culture medium inhibited nitrite production stimulated by both IL-1 and IL-1 plus IFN-γ. FIGURE B: IL-1 concentration dependence for smooth muscle cell nitrite production. Data points indicate nitrite produced during a 29-hour incubation with the indicated concentration of IL-1 alone (open circles) or in the presence of IL-1 plus 50 ng/mL IFN-γ (open triangles). All values are means ± SD for nitrite production by confluent smooth muscle cell monolayers grown in 96-well microtiter plates (60-80 X 10^3 cells per well; n = 3-4).
Experiments were conducted on healthy mongrel dogs that were free of microfilaria and weighed 25-28 kg each. […]

Where “and” joins values, the source holds several entries; their conditions need not be identical. Equal values may be shown once. Read-outs that look alike come from different tables or passages of the source. *1 amine or outer side, *2 acyl side, *3 side chain or, on linkers, in order; H or OH if unused. Where a SMILES comes first, the peptide text is derived from it. Bridges are numbered along the chain shown (N, C = ends). Roman numbers before positions name the chains, in order. [ ]: non-standard residue; d: D form. Actinocin(9to1) = Cc1c2oc3c(C)ccc(C(=O)[*:1])c3nc-2c(C(=O)[*:2])c(N)c1=O; NMeV = CN[C@H](C(=O)O)C(C)C; Sar = CNCC(=O)O

On to `C[C@@H]1C[C@@H]([C@H](O)CC2CC(=O)NC(=O)C2)C(=O)[C@@H](C)C1` [cycloheximide], for which the nitrite produced entry in data set [1] is reported as “less than 0.1 nmol”.

With `Cc1c2oc3c(C)ccc(C(=O)N[C@@H]4C(=O)N[C@H](C(C)C)C(=O)N5CCC[C@H]5C(=O)N(C)CC(=O)N(C)[C@@H](C(C)C)C(=O)O[C@@H]4C)c3nc-2c(C(=O)N[C@@H]2C(=O)N[C@H](C(C)C)C(=O)N3CCC[C@H]3C(=O)N(C)CC(=O)N(C)[C@@H](C(C)C)C(=O)O[C@@H]2C)c(N)c1=O` [dactinomycin] (I: T[dV]P[Sar][NMeV] / II: T[dV]P[Sar][NMeV]; ester I:1-I:C, II:1-II:C; linker I:N-II:N via Actinocin(9to1)), in data set [1] (cells cultured 14 hours with IL-1 (100 ng/mL) and IFN-γ (50 ng/mL) plus 0.5 mg/mL dactinomycin or 1 mg/mL cycloheximide, then 16 hours in cytokine-free medium, control 2.52), the nitrite produced entry is “less than 0.1 nmol”. The viability in data set [2] was 101%.

Consider `N=C(NN)NCCC[C@H](N)C(=O)O` [NAA, N^ω-amino-L-arginine], for which, in the data set with ET shock (lethal dose) (ET 2 mg/kg, multiple doses of NAA, then autopsied), the “survival of the animal” value is 24 h. In addition, in the data set on ET shock (lethal dose) (autopsy after 24 hours), the “pathological changes in liver, lungs, heart, brain, bowel or kidney” value is “No pathological changes were observed”. Besides, the “effect on the cytolytic effect of TNF towards tumor cells in vitro” value in data set [3] is given as “did not alter”. In data set [4], the “reversing the hypotension associated with TNF administration” value is on record as “as effective as NMMA”. In data set [5] (IL-1-treated dogs, average), the “systemic vascular resistance after injection of NAA, higher than baseline” value came to 43%. In addition, the “MAP increase after NAA” value was 46 ± 9 mm Hg and 46 +/- 9 mm Hg in data set [5] (anesthetized dogs (n = 4) made hypotensive with IL-1 50 µg/kg); 58% in data set [5] (dogs given IL-1 50 µg/kg). The “average increase in MAP above baseline” value in data set [5] (control dogs not given IL-1, NAA) is 20.1 ± 3.8 mm Hg. In addition, the “MAP after NAA” value in data set [5] (dogs given IL-1 50 µg/kg (MAP 80 ± 2 before NAA), NAA 20 mg/kg iv) was 125 ± 8 mm Hg and 125 +/- 8 mm Hg. For the same compound, the “average increase of MAP following NAA above the pre-IL-1 baseline MAP” value in data set [5] (dogs given IL-1 50 µg/kg, NAA 20 mg/kg) came to 14.3 ± 7.7 mm. Besides, in data set [5] (dogs treated with IL-1, then NAA, P = .037), the “reduction in cardiac output compared with that after IL-1” value is 25.2%. The “cardiac output after NAA” value in data set [5] (dogs treated with IL-1, then NAA, baseline 2.25, P = .204) worked out at 1.93 L/min. For the same compound, the “decrease in cardiac output” value in data set [5] (dogs treated with NAA alone, P = .046) was 29.2%. Moreover, in data set [5] (second and third injections of NAA (20 mg/kg), cytokine-treated dogs), the “duration physiologically acceptable MAP readings maintained” value is recorded as “up to 7 hours”. In addition, the “duration MAP maintained at baseline or higher levels” value in data set [5] (single injections of NAA (20 mg/kg) in cytokine-treated dogs, no L-arginine) is listed as “up to 60 minutes”.

The record behind these values is patent publication EP0663826B1, “AMINO ACIDS CONTAINING PARENTERAL FORMULATIONS FOR THE TREATMENT OF HYPOTENSION AND RELATED PATHOLOGIES” (BOARD OF REGENTS THE UNIVERSITY OF TEXAS SYSTEM, priority 1991, dated 1993).
